The supplement of paper PMC10307832

Assays:
Assay in all cases: relative viability (nuclei count vs DMSO), 5 days (fraction); higher = more cells survive
[1] = compound: CC(C)C[C@@H](C(=O)N[C@H](C(=O)OC1CCCC1)c1ccccc1)[C@H](O)C(=O)NO [Tosedostat] + C[C@@H](Oc1cc(-c2cnn(C3CCNCC3)c2)cnc1N)c1c(Cl)ccc(F)c1Cl [Crizotinib] (partner 1 µM)
Method in brief: (§1)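 After 5 days of treatment, lung cancer cells in 1536-well plates were fixed and stained in a single step (final 0.05% Triton X-100, 1% formaldehyde, 1 ug/ml Hoechst) and their nuclei counted on 4× images. Treatment had been applied by pin tool the day after seeding as one drug alone or as a fixed anchor-drug dose with five library-drug doses (not always all listed) in √10 steps. Relative viability is the nuclei count of treated wells divided by that of vehicle wells, and values are medians of duplicate plates.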

[2] = compound: CC1=NN=C(O1)C2=NN=C(C=C2)N3CCC(CC3)OC4=C(C=CC(=C4)F)Cl + CS(=O)(=O)N1CCN(Cc2cc3nc(-c4cccc5[nH]ncc45)nc(N4CCOCC4)c3s2)CC1 [Pictilisib] (partner 1 µM)
Method in brief: as §1

[3] = compound: CC(C)C[C@@H](C(=O)N[C@H](C(=O)OC1CCCC1)c1ccccc1)[C@H](O)C(=O)NO [Tosedostat] + C[C@]1(O)C[C@@H](c2nc(-c3ccc4ccc(-c5ccccc5)nc4c3)c3c(N)nccn32)C1 [Linsitinib] (partner 1 µM)
Method in brief: as §1

[4] = compound: CC(C)C[C@@H](C(=O)N[C@H](C(=O)OC1CCCC1)c1ccccc1)[C@H](O)C(=O)NO [Tosedostat] + COc1cc2c(Oc3ccc(NC(=O)C4(C(=O)Nc5ccc(F)cc5)CC4)cc3F)ccnc2cc1OCCCN1CCOCC1 [Foretinib] (partner 0.25 µM)
Method in brief: as §1

Cell Line	relative viability ([1]; first compound 0.02 µM)	relative viability ([1]; first compound 0.06325 µM)	relative viability ([1]; first compound 0.2 µM)	relative viability ([1]; first compound 0.6325 µM)	relative viability ([1]; first compound 2 µM)	relative viability ([2]; first compound 0.253 µM)	relative viability ([2]; first compound 0.8 µM)	relative viability ([2]; first compound 2.53 µM)	relative viability ([2]; first compound 8 µM)	relative viability ([3]; first compound 0.02 µM)	relative viability ([3]; first compound 0.06325 µM)	relative viability ([3]; first compound 0.2 µM)	relative viability ([3]; first compound 0.6325 µM)	relative viability ([3]; first compound 2 µM)	relative viability ([4]; first compound 0.02 µM)	relative viability ([4]; first compound 0.06325 µM)	relative viability ([4]; first compound 0.2 µM)	relative viability ([4]; first compound 0.6325 µM)	relative viability ([4]; first compound 2 µM)
HCC-15	0.939	0.836	0.834	0.777	0.635	0.583	0.566	0.6	0.546	0.826	0.876	0.848	0.831	0.672	1.08	0.995	1.02	0.96	0.849
A-427	0.972	0.847	0.87	0.916	0.895	0.859		0.675	0.54	1.14	1.12	1.03	1.07	1.09	0.979	1	1.07	1.12	0.877
NCI-H3122	0.292	0.274	0.277	0.254	0.234	0.643	0.593	0.648	0.642	0.993	1	1.01	1.02	1.04	1.01	0.901	1.01	0.967	1.07
NCI-H1915	0.922	0.894	0.901	0.905	0.79	0.763	0.586	0.698	0.563	1.16	1.11	1.11	1.1	0.961	1.13	1.1	1.14	1.05	0.947
NCI-H1355	0.997	1.09	1.06	0.976	0.813			0.453	0.374	0.717	0.839	0.762	0.701	0.726	0.93	0.991	0.99	0.92	0.883
NCI-H2023	0.689	0.609	0.747	0.696	0.637	0.22	0.27	0.308	0.18	0.659	0.619	0.594	0.65	0.587	0.782	0.779	0.764		0.808
NCI-H1755	0.933	0.846	0.876	0.856	0.771	0.382	0.383	0.398	0.387	0.942	1.02	0.985	0.965	0.939	1.01	0.944	1	0.992	0.931
HCC-366	0.681	0.532	0.432	0.465	0.325	0.12	0.197	0.15	0.142	0.59	0.77	0.721	0.457	0.602	0.913	0.948	0.972	0.927	0.935
